From US10221163B2 (priority 2015, dated 2019)
Read-outs that look alike come from different tables or passages of the source.

How the values were obtained:
NDM-1 = NDM-1 (Klebsiella pneumoniae, UniProt C7C422); assay: biochemical; type: biochemical; settings: fluorescence assay, CCF2-FA substrate, 1 pM enzyme, 2 hours at 25° C.; read-out: NDM-1 IC50
In short: (§1)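 Semi-log dose-response curves, fitted with a 4-parameter model, gave IC50s. The underlying signal was CCF2-FA fluorescence following 2 hours at 25° C with enzyme, substrate and inhibitor combined.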

IMP-1 = IMP-1 (Serratia marcescens, UniProt P52699); assay: biochemical; type: biochemical; settings: fluorescence assay, CCF2-FA substrate, 2 pM enzyme, 2 hours at 25° C.; read-out: IMP-1 IC50
IMP-1, sequence (P52699 whole entry, looked up, species assumed): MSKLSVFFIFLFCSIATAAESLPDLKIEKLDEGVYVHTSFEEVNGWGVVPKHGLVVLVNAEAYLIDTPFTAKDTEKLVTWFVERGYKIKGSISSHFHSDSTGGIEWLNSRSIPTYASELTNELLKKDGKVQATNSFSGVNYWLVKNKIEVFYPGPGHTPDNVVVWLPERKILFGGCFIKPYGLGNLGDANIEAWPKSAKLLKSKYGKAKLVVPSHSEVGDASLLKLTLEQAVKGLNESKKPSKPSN
In short: as §1

[1] = test system: Pseudomonas aeruginosa efflux+ (MB9798), IMP-1; type: cell-based; parameters: Concentration of metallo-β-lactamase inhibitor which restores susceptibility of efflux + (MB9798) strain to imipenem: unit not given here; settings: efflux+ MB9798; imipenem at 2 μg/mL; in the presence of a class A, C, D serine β-lactamase inhibitor closely related to relebactam
In short: (§2)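 P. aeruginosa PAO1-derived IMP-1 strains, efflux+ MB9798 and efflux− MB9799, tested by standard microbroth MIC with imipenem and/or ceftazidime fixed, usually at CLSI breakpoint, plus fixed class A/C β-lactamase inhibitor against AmpC. Inhibitor titrated; concentration restoring susceptibility recorded; MB9798/MB9799 fold difference indicates efflux.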

VIM-1 = VIM-1 (Pseudomonas aeruginosa (strain ATCC 15692 / DSM 22644 / CIP 104116 / JCM 14847 / LMG 12228 / 1C / PRS 101 / PAO1), UniProt A0A0F7KYQ8); assay: biochemical; settings: CCF2-FA substrate, 30 pM enzyme, 2 hours at 25° C.
In short: as §1

[2] = test system: Klebsiella pneumoniae expressing VIM-1 (IHMA599644); type: cell-based; settings: VIM-1 strain IHMA599644, with imipenem 1 μg/ml, 95% inhibition of growth
In short: (§3)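 Clinical isolates (E. coli NDM-1, S. marcescens IMP-1, K. pneumoniae VIM-1) were diluted 1:100 from saline suspension into 1.1×CAMHB and exposed to test compound with imipenem at 1 μg/ml. Plates were incubated at 35° C for 22 hours to 24 hours, and growth was read by absorbance.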

[3] = test system: Serratia marcescens expressing IMP-1 (CL5741); type: cell-based; settings: IMP-1 strain CL5741, with imipenem 1 μg/ml, 95% inhibition of growth
In short: as §3

[4] = test system: Escherichia coli expressing NDM-1 (CLB30005, CLB30016); type: cell-based; settings: NDM-1 strain, with imipenem 1 μg/ml, 95% inhibition of growth
In short: as §3

[5] = test system: Pseudomonas aeruginosa MB9798 vs MB9799; settings: fold difference between efflux+ (MB9798) and efflux− (MB9799) strains; imipenem at 2 μg/mL
In short: as §2

[6] = test system: Pseudomonas aeruginosa efflux− (MB9799), IMP-1; type: cell-based; settings: efflux− MB9799; imipenem at 2 μg/mL; in the presence of a class A, C, D serine β-lactamase inhibitor closely related to relebactam
In short: as §2

[7] = fluorescence assay, read-out: VIM-1 IC50

NDM-1, sequence (C7C422 whole entry, looked up, species assumed): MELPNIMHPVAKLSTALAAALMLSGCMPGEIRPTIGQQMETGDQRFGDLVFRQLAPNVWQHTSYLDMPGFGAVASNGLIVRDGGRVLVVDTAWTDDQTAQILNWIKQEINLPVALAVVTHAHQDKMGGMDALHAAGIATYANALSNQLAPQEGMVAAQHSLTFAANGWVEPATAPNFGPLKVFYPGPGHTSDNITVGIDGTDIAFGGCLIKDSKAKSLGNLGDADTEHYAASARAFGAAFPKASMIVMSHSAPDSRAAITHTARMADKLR

Row | SMILES | IC50 (NDM-1) | IC50 (IMP-1) | Concentration of metallo-β-lactamase inhibitor which restores susceptibility of efflux + (MB9798) strain to imipenem [1] | IC50 (VIM-1; [7]) | Klebsiella pneumoniae MITC95 [2] | Serratia marcescens MITC95 [3] | Escherichia coli MITC95 [4] | Efflux ratio [5] | Concentration of metallo-β-lactamase inhibitor which restores susceptibility of efflux − (MB9799) strain to imipenem [6] | IC50 (VIM-1; VIM-1 IC50, fluorescence assay)
1 | NCCCNS(=O)(=O)c1ccc(-c2cc(F)cc3[nH]c(N)nc23)c(-c2nn[nH]n2)c1S(N)(=O)=O [Example 402] | 0.0524 nM | 0.318 nM | 0.7813 | 0.159 nM | 1.563 µM | 0.7813 µM | 0.3906 µM | 1.00 | 0.7813 | 
2 | NCC(CN)NS(=O)(=O)c1ccc(-c2cccc3[nH]nnc23)c(-c2nn[nH]n2)c1S(N)(=O)=O [Example 403] | 0.0633 nM | 0.531 nM | 1.563 |  | 3.125 µM | 1.563 µM | 1.563 µM | 1.00 | 1.563 | 0.175 nM
3 | NCC(CN)NS(=O)(=O)c1ccc(-c2ccc(N)nc2)c(-c2nn[nH]n2)c1S(N)(=O)=O [Example 404] | 0.232 nM | 0.354 nM | 1.172 | 0.297 nM | 1.172 µM | 0.5859 µM | 0.293 µM | 1.20 | 0.9766 | 
4 | NCC(CN)NS(=O)(=O)c1ccc(-c2ccnc(N)c2)c(-c2nn[nH]n2)c1S(N)(=O)=O [Example 405] | 7.69 nM | 17.9 nM | 25 | 5.94 nM | 25 µM | 6.25 µM | 3.125 µM | 2.00 | 12.5 | 
5 | NCC(CN)NS(=O)(=O)c1ccc(-c2ccc3nccn3c2)c(-c2nn[nH]n2)c1S(N)(=O)=O [Example 406] | 0.164 nM | 0.592 nM | 1.563 | 0.172 nM | 3.125 µM | 0.7813 µM | 0.3906 µM | 1.00 | 1.563 | 
6 | NC[C@H](CO)NS(=O)(=O)c1ccc(-c2cccc3[nH]nnc23)c(-c2nn[nH]n2)c1S(N)(=O)=O [Example 407] | 0.14 nM | 1.35 nM | 3.125 |  | 3.125 µM | 1.563 µM | 0.7813 µM | 2.00 | 1.563 | 0.335 nM
7 | NC[C@H](CO)NS(=O)(=O)c1ccc(-c2ccc(N)nc2)c(-c2nn[nH]n2)c1S(N)(=O)=O [Example 408] | 0.421 nM | 0.684 nM | 1.563 | 0.394 nM | 3.125 µM | 0.7813 µM | 0.09766 µM | 1.00 | 1.563 | 
8 | NC[C@@H](CO)NS(=O)(=O)c1ccc(-c2ccc(N)nc2)c(-c2nn[nH]n2)c1S(N)(=O)=O [Example 409] | 0.112 nM | 0.17 nM | 1.563 | 0.184 nM | 3.125 µM | 1.563 µM | 0.1953 µM | 1.00 | 1.563 | 
9 | Nc1ccc(-c2ccc(S(=O)(=O)N[C@H]3CNC[C@H]3O)c(S(N)(=O)=O)c2-c2nn[nH]n2)cn1 [Example 410] | 0.322 nM | 0.681 nM | 0.7813 | 0.374 nM | 1.563 µM | 0.7813 µM | 0.3906 µM | 1.00 | 0.7813 | 
10 | Nc1ccc(-c2ccc(S(=O)(=O)N[C@H]3CN[C@H](CO)C3)c(S(N)(=O)=O)c2-c2nn[nH]n2)cn1 [Example 411] | 0.117 nM | 0.408 nM | 1.563 | 0.177 nM | 3.125 µM | 1.563 µM | 0.7813 µM | 1.00 | 1.563 | 
11 | NS(=O)(=O)c1c(S(=O)(=O)N[C@@H]2CNC[C@@H]2O)ccc(-c2cccc3[nH]nnc23)c1-c1nn[nH]n1 [Example 412] | 0.108 nM | 2.57 nM | 1.563 | 0.321 nM | 6.25 µM | 3.125 µM | 3.125 µM | 0.50 | 3.125 | 
12 | NC[C@H](N)CNS(=O)(=O)c1ccc(-c2ccc(N)nc2)c(-c2nn[nH]n2)c1S(N)(=O)=O [Example 415] | 0.361 nM | 0.801 nM | 1.563 | 0.425 nM | 3.125 µM | 1.172 µM | 0.1953 µM | 1.00 | 1.563 | 
13 | NC[C@@H](N)CNS(=O)(=O)c1ccc(-c2ccc(N)nc2)c(-c2nn[nH]n2)c1S(N)(=O)=O [Example 416] | 0.917 nM | 1.34 nM | 3.125 | 0.68 nM | 6.25 µM | 1.563 µM | 0.3906 µM | 1.00 | 3.125 | 
14 | NC[C@H](O)CNS(=O)(=O)c1ccc(-c2ccc3nccn3c2)c(-c2nn[nH]n2)c1S(N)(=O)=O [Example 418] | 0.152 nM | 0.834 nM | 1.563 | 0.113 nM | 1.563 µM | 0.7813 µM | 0.3906 µM | 2.00 | 0.7813 | 
15 | NC[C@@H](O)CNS(=O)(=O)c1ccc(-c2ccc3nccn3c2)c(-c2nn[nH]n2)c1S(N)(=O)=O [Example 420] | 0.23 nM | 0.974 nM | 1.563 | 0.125 nM | 3.125 µM | 1.563 µM | 0.3906 µM | 2.00 | 0.7813 | 
16 | C[C@@H](N)CNS(=O)(=O)c1ccc(-c2ccc3nccn3c2)c(-c2nn[nH]n2)c1S(N)(=O)=O [Example 423] | 0.303 nM | 1.15 nM | 3.125 |  | 1.563 µM | 0.7813 µM | 0.3906 µM | 4.00 | 0.7813 | 0.18 nM
